Tested on: Ixodes scapularis
Assay: In vitro contact activity against adult ticks (coated vial), I. scapularis
Conditions: for mortality at 0.006 µM: Trial 1, dose 0.006 μM; for mortality at 0.024 µM: Trial 1, dose 0.024 μM; for mortality at 0.098 µM: Trial 1, dose 0.098 μM; for mortality at 0.39 µM: Trial 1, dose 0.39 μM; for mortality at 1.56 µM: Trial 1, dose 1.56 μM; for mortality at 6.25 µM: Trial 1, dose 6.25 μM; for mortality at 25 µM: Trial 1, dose 25 μM; for mortality at 100 µM: Trial 1, dose 100 μM
Procedure: Rhipicephalus sanguineus, Dermacentor variabilis, Amblyomma americanum, (Ecto Services, Inc., Henderson, N.C.) and Ixodes scapularis (Oklahoma State University, Stillwater, Okla.) aged between 2-4 weeks post molt were held in an environmental chamber at 24° C., 80% humidity with 12-hour light/dark cycles.
For tick assays, vial caps were pre-drilled with a single hole in the center of each cap to allow air exchange. A filter paper (Whatman Grade 540 2.1 cm) was placed in the lid of each vial. An aliquot from each compound stock was added to an acetone/triton solution to achieve the desired top doses for the study. Serial dilutions were conducted from the top dose (i.e. 100 ppm) to achieve the desired titration range for EC50 and EC90 determination. For R. sanguineus, D. variabilis, and A. americanum, the final DMSO concentration in each test vial was 0.5%. For I. scapularis, compounds were solubilized directly in an acetone/triton solution due to I. scapularis' sensitivity to DMSO. A 459 μL aliquot of each compound formulation was transferred to a vial containing a Whatman Grade 540 2.1 cm filter paper. Vials were immediately placed on an unheated roller unit to allow for an even coating of the vial walls. After vials were coated, 41 μL of each compound formulation was added to the filter paper embedded in each vial cap. Each cap was allowed to dry. The vials were loosely capped and allowed to dry for a minimum of four hours in a chemical fume hood.
Compounds tested were: the C1 racemate, C1 (R) enantiomer, and the C1 (S) enantiomer. For Trial 3, the C1 (R) enantiomer and the C1 (S) enantiomer were further chiral purified to achieve >99% purity.
Ten adult ticks were added to each vial and held at 24° C., 80% humidity with 12-hour light/dark cycles. Adult ticks were assessed for percent mortality at various time points between 2 hours and 48 hours post infestation. Ticks were stimulated on a heated roller unit and evaluated. Ticks showing no movement, or very slow and uncoordinated movement were noted as dead.

O=C(CC(F)(F)F)N1CC2(C1)OCc1cc(C3=NSC(c4cc(Cl)c(F)c(Cl)c4)(C(F)(F)F)C3)ccc12 (racemic) [C1 racemate, 1-[6-[5-(3,5-dichloro-4-fluoro-phenyl)-5-(trifluoromethyl)-4H-isothiazol-3-yl]spiro[1H-isobenzofuran-3,3′-azetidine]-1′-yl]-3,3,3-trifluoro-propan-1-one]
mortality at 0.006 µM (2 h, Rep1): 0%
mortality at 0.006 µM (2 h, Rep2): 0%
mortality at 0.024 µM (2 h, Rep1): 0%
mortality at 0.024 µM (2 h, Rep2): 0%
mortality at 0.098 µM (2 h, Rep1): 0%
mortality at 0.098 µM (2 h, Rep2): 0%
mortality at 0.39 µM (2 h, Rep1): 0%
mortality at 0.39 µM (2 h, Rep2): 0%
mortality at 1.56 µM (2 h, Rep1): 0%
mortality at 1.56 µM (2 h, Rep2): 0%
mortality at 6.25 µM (2 h, Rep1): 0%
mortality at 6.25 µM (2 h, Rep2): 0%
mortality at 25 µM (2 h, Rep1): 0%
mortality at 25 µM (2 h, Rep2): 0%
mortality at 100 µM (2 h, Rep1): 0%
mortality at 100 µM (2 h, Rep2): 0%
mortality at 0.006 µM (6 h, Rep1): 0%
mortality at 0.006 µM (6 h, Rep2): 0%
mortality at 0.024 µM (6 h, Rep1): 0%
mortality at 0.024 µM (6 h, Rep2): 0%
mortality at 0.098 µM (6 h, Rep1): 0%
mortality at 0.098 µM (6 h, Rep2): 0%
mortality at 0.39 µM (6 h, Rep1): 0%
mortality at 0.39 µM (6 h, Rep2): 0%
mortality at 1.56 µM (6 h, Rep1): 0%
mortality at 1.56 µM (6 h, Rep2): 0%
mortality at 6.25 µM (6 h, Rep1): 0%
mortality at 6.25 µM (6 h, Rep2): 0%
mortality at 25 µM (6 h, Rep1): 10%
mortality at 25 µM (6 h, Rep2): 40%
mortality at 100 µM (6 h, Rep1): 100%
mortality at 100 µM (6 h, Rep2): 50%
mortality at 0.006 µM (12 h, Rep1): 0%
mortality at 0.006 µM (12 h, Rep2): 0%
mortality at 0.024 µM (12 h, Rep1): 0%
mortality at 0.024 µM (12 h, Rep2): 0%
mortality at 0.098 µM (12 h, Rep1): 0%
mortality at 0.098 µM (12 h, Rep2): 0%
mortality at 0.39 µM (12 h, Rep1): 0%
mortality at 0.39 µM (12 h, Rep2): 10%
mortality at 1.56 µM (12 h, Rep1): 0%
mortality at 1.56 µM (12 h, Rep2): 0%
mortality at 6.25 µM (12 h, Rep1): 0%
mortality at 6.25 µM (12 h, Rep2): 70%
mortality at 25 µM (12 h, Rep1): 50%
mortality at 25 µM (12 h, Rep2): 70%
mortality at 100 µM (12 h, Rep1): 100%
mortality at 100 µM (12 h, Rep2): 100%
mortality at 0.006 µM (24 h, Rep1): 0%
mortality at 0.006 µM (24 h, Rep2): 0%
mortality at 0.024 µM (24 h, Rep1): 0%
mortality at 0.024 µM (24 h, Rep2): 30%
mortality at 0.098 µM (24 h, Rep1): 0%
mortality at 0.098 µM (24 h, Rep2): 20%
mortality at 0.39 µM (24 h, Rep1): 50%
mortality at 0.39 µM (24 h, Rep2): 50%
mortality at 1.56 µM (24 h, Rep1): 10%
mortality at 1.56 µM (24 h, Rep2): 30%
mortality at 6.25 µM (24 h, Rep1): 80%
mortality at 6.25 µM (24 h, Rep2): 100%
mortality at 25 µM (24 h, Rep1): 90%
mortality at 25 µM (24 h, Rep2): 100%
mortality at 100 µM (24 h, Rep1): 100%
mortality at 100 µM (24 h, Rep2): 100%
mortality at 0.006 µM (48 h, Rep1): 10%
mortality at 0.006 µM (48 h, Rep2): 0%
mortality at 0.024 µM (48 h, Rep1): 10%
mortality at 0.024 µM (48 h, Rep2): 30%
mortality at 0.098 µM (48 h, Rep1): 0%
mortality at 0.098 µM (48 h, Rep2): 60%
mortality at 0.39 µM (48 h, Rep1): 70%
mortality at 0.39 µM (48 h, Rep2): 100%
mortality at 1.56 µM (48 h, Rep1): 90%
mortality at 1.56 µM (48 h, Rep2): 80%
mortality at 6.25 µM (48 h, Rep1): 100%
mortality at 6.25 µM (48 h, Rep2): 100%
mortality at 25 µM (48 h, Rep1): 100%
mortality at 25 µM (48 h, Rep2): 100%
mortality at 100 µM (48 h, Rep1): 100%
mortality at 100 µM (48 h, Rep2): 100%

O=C(CC(F)(F)F)N1CC2(C1)OCc1cc(C3=NS[C@](c4cc(Cl)c(F)c(Cl)c4)(C(F)(F)F)C3)ccc12 [C1 (R) enantiomer, (R)-1-[6-[5-(3,5-dichloro-4-fluoro-phenyl)-5-(trifluoromethyl)-4H-isothiazol-3-yl]spiro[1H-isobenzofuran-3,3′-azetidine]-1′-yl]-3,3,3-trifluoro-propan-1-one]
mortality at 0.006 µM (2 h, Rep1): 0%
mortality at 0.006 µM (2 h, Rep2): 0%
mortality at 0.024 µM (2 h, Rep1): 0%
mortality at 0.024 µM (2 h, Rep2): 0%
mortality at 0.098 µM (2 h, Rep1): 0%
mortality at 0.098 µM (2 h, Rep2): 0%
mortality at 0.39 µM (2 h, Rep1): 0%
mortality at 0.39 µM (2 h, Rep2): 0%
mortality at 1.56 µM (2 h, Rep1): 0%
mortality at 1.56 µM (2 h, Rep2): 0%
mortality at 6.25 µM (2 h, Rep1): 0%
mortality at 6.25 µM (2 h, Rep2): 0%
mortality at 25 µM (2 h, Rep1): 0%
mortality at 25 µM (2 h, Rep2): 0%
mortality at 100 µM (2 h, Rep1): 0%
mortality at 100 µM (2 h, Rep2): 0%
mortality at 0.006 µM (6 h, Rep1): 0%
mortality at 0.006 µM (6 h, Rep2): 0%
mortality at 0.024 µM (6 h, Rep1): 0%
mortality at 0.024 µM (6 h, Rep2): 0%
mortality at 0.098 µM (6 h, Rep1): 0%
mortality at 0.098 µM (6 h, Rep2): 0%
mortality at 0.39 µM (6 h, Rep1): 0%
mortality at 0.39 µM (6 h, Rep2): 0%
mortality at 1.56 µM (6 h, Rep1): 0%
mortality at 1.56 µM (6 h, Rep2): 0%
mortality at 6.25 µM (6 h, Rep1): 0%
mortality at 6.25 µM (6 h, Rep2): 0%
mortality at 25 µM (6 h, Rep1): 0%
mortality at 25 µM (6 h, Rep2): 0%
mortality at 100 µM (6 h, Rep1): 0%
mortality at 100 µM (6 h, Rep2): 0%
mortality at 0.006 µM (12 h, Rep1): 0%
mortality at 0.006 µM (12 h, Rep2): 0%
mortality at 0.024 µM (12 h, Rep1): 0%
mortality at 0.024 µM (12 h, Rep2): 0%
mortality at 0.098 µM (12 h, Rep1): 0%
mortality at 0.098 µM (12 h, Rep2): 0%
mortality at 0.39 µM (12 h, Rep1): 0%
mortality at 0.39 µM (12 h, Rep2): 0%
mortality at 1.56 µM (12 h, Rep1): 0%
mortality at 1.56 µM (12 h, Rep2): 0%
mortality at 6.25 µM (12 h, Rep1): 0%
mortality at 6.25 µM (12 h, Rep2): 0%
mortality at 25 µM (12 h, Rep1): 0%
mortality at 25 µM (12 h, Rep2): 0%
mortality at 100 µM (12 h, Rep1): 0%
mortality at 100 µM (12 h, Rep2): 0%
mortality at 0.006 µM (24 h, Rep1): 0%
mortality at 0.006 µM (24 h, Rep2): 0%
mortality at 0.024 µM (24 h, Rep1): 0%
mortality at 0.024 µM (24 h, Rep2): 0%
mortality at 0.098 µM (24 h, Rep1): 0%
mortality at 0.098 µM (24 h, Rep2): 0%
mortality at 0.39 µM (24 h, Rep1): 0%
mortality at 0.39 µM (24 h, Rep2): 0%
mortality at 1.56 µM (24 h, Rep1): 0%
mortality at 1.56 µM (24 h, Rep2): 0%
mortality at 6.25 µM (24 h, Rep1): 0%
mortality at 6.25 µM (24 h, Rep2): 0%
mortality at 25 µM (24 h, Rep1): 0%
mortality at 25 µM (24 h, Rep2): 0%
mortality at 100 µM (24 h, Rep1): 20%
mortality at 100 µM (24 h, Rep2): 0%
mortality at 0.006 µM (48 h, Rep1): 0%
mortality at 0.006 µM (48 h, Rep2): 0%
mortality at 0.024 µM (48 h, Rep1): 0%
mortality at 0.024 µM (48 h, Rep2): 0%
mortality at 0.098 µM (48 h, Rep1): 0%
mortality at 0.098 µM (48 h, Rep2): 0%
mortality at 0.39 µM (48 h, Rep1): 0%
mortality at 0.39 µM (48 h, Rep2): 0%
mortality at 1.56 µM (48 h, Rep1): 0%
mortality at 1.56 µM (48 h, Rep2): 0%
mortality at 6.25 µM (48 h, Rep1): 0%
mortality at 6.25 µM (48 h, Rep2): 0%
mortality at 25 µM (48 h, Rep1): 10%
mortality at 25 µM (48 h, Rep2): 30%
mortality at 100 µM (48 h, Rep1): 50%
mortality at 100 µM (48 h, Rep2): 30%

— patent publication US10807992B2, “Single enantiomer antiparasitic compounds” (priority 2017, dated 2020)
